The text below walks through data of patent US8343968B2, “Case of renin inhibitors” (Merck Canada Inc., priority 2007, dated 2013).

The target in one assay is T1, human recombinant renin (Homo sapiens, UniProt P00797).
T1 sequence (P00797 67-406): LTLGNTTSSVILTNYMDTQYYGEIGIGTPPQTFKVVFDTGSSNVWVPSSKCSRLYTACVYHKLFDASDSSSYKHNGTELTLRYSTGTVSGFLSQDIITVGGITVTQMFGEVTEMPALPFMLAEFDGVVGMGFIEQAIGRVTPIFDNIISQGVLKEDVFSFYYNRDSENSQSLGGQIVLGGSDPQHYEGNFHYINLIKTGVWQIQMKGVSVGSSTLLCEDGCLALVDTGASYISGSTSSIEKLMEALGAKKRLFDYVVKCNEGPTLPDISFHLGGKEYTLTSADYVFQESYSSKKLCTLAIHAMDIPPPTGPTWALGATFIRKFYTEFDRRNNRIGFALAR
The assay is described as follows: Inhibition of human recombinant renin (buffer), enzymatic in vitro assay with Ang I EIA. Type of assay: biochemical. To be noted: assay buffer PBS, 1 mM EDTA, 0.1% BSA; human recombinant renin 40 pM. As for the experimental part: Inhibition of Human Recombinant Renin
The enzymatic in vitro assay was performed in 384-well polypropylene plates (Nunc). The assay buffer consisted of PBS (Gibco BRL) including 1 mM EDTA and 0.1% BSA. The reaction mixture were composed of 47.5 μL per well of an enzyme mix and 2.5 μL of renin inhibitors in DMSO. The enzyme mix was premixed at 4° C. and consists of the following components: • human recombinant renin (40 pM) • synthetic human angiotensin(1-14) (0.5 μM) • hydroxyquinoline sulfate (1 mM) The mixtures were then incubated at 37° C. for 3 h. The enzyme reaction was stopped by placing the reaction plate on wet ice.
To determine the enzymatic activity and its inhibition, the accumulated Ang I was detected by an enzyme immunoassay (EIA) in 384-well plates (Nunc). 5 μL of the reaction mixture or standards were transferred to immuno plates which were previously coated with a covalent complex of Ang I and bovine serum albumin (Ang I-BSA). 75 μL of Ang I-antibodies in assay buffer above including 0.01% Tween 20 were added and the plates were incubated at 4° C. overnight.
An alternative protocol could be used by stopping the enzymatic reaction with 0.02N final concentration of HCl. 5 μL of the reaction mixture or standards were transferred to immuno plates and 75 μL of Ang I-antibodies in assay buffer above including 0.01% Tween 20 were added and the plates were incubate at RT for 4 h.
The plates were washed 3 times with PBS including 0.01% Tween 20, and then incubated for 2 h at RT with an anti rabbit-peroxidase coupled antibody (WA 934, Amersham).

Assay [1] addresses T2, renin in human plasma (human recombinant renin) (Homo sapiens, UniProt P00797).
T2 construct: host or cells: human plasma from 10 normal donors as matrix
T2 sequence (P00797 67-406): T1 sequence (P00797 67-406)
Nature of the assay: Inhibition of renin in human plasma, enzymatic in vitro assay with Ang I EIA. Type of assay: biochemical. To be noted: human plasma from 10 normal donors; human recombinant renin 3 pM. Here is the method:
Inhibition of Renin in Human Plasma
The enzymatic in vitro assay was performed in 384-well polypropylene plates (Nunc). The assay buffer consisted of PBS (Gibco BRL) including 1 mM EDTA and 0.1% BSA. The reaction mixture was composed of 80 μL per well of human plasma, enzyme, Ang I-antibodies mix and 5 μL of renin inhibitors in DMSO. The human plasma mix was premixed at 4° C. and consists of • human plasma from 10 normal donors • human recombinant renin (3 pM) • Ang I-antibodies. The mixtures were then incubated at 37° C. for 2 h.
To determine the enzymatic activity and its inhibition, the accumulated Ang I was detected by an enzyme immunoassay (EIA) in 384-well plates (Nunc). 10 μL of the reaction mixture or standards were transferred to immuno plates which were previously coated with a covalent complex of Ang I and bovine serum albumin (Ang I-BSA). 70 μL assay buffer were added and the plates were incubated at 4° C. overnight. The plates were washed 3 times with PBS including 0.01% Tween 20, and then incubated for 2 h at RT with an anti rabbit-peroxidase coupled antibody (WA 934, Amersham).

pIC50: −log10 of the molar value.

A word on the pIC50: it is −log10 of the IC50, conventionally taken in molar units. Regarding `COCCCc1cc(CN(C(=O)[C@H]2CNCC[C@@H]2c2ccc(OCCOc3c(Cl)cc(C)cc3Cl)cc2)C2CC2)cc(OCC2(CC(=O)O)CC2)c1` [Example 12, (1-{[3-({Cyclopropyl[((3R,4S)-4-{4-[2-(2,6-dichloro-4-methylphenoxy)ethoxy]-phenyl}piperidin-3-yl)carbonyl]amino}methyl)-5-(3-methoxypropyl)phenoxy]-methyl}cyclopropyl)acetic Acid], the pIC50 is 10.44 on human recombinant renin and 8.25 in assay [1].
Consider `COCCCc1cc(CN(C(=O)[C@H]2CNCC[C@@H]2c2ccc(OCCOc3c(Cl)cc(C)cc3Cl)cc2)C2CC2)cc(OC[C@@H]2C[C@H]2C(=O)O)c1` [Example 2], for which the pIC50 at human recombinant renin is 10.57; in assay [1] it was 8.96.
Take `CCOC(=O)[C@@H]1C[C@H]1COc1cc(CCCOC)cc(CN(C(=O)[C@H]2CNCC[C@@H]2c2ccc(OCCOc3c(Cl)cc(C)cc3Cl)cc2)C2CC2)c1` [Example 1, Ethyl (1R,2R)-2-{[3-({cyclopropyl[((3R,4S)-4-{4-[2-(2,6-dichloro-4-methylphenoxy)-ethoxy]phenyl}piperidin-3-yl)carbonyl]amino}methyl)-5-(3-methoxypropyl)phen-oxy]methyl}cyclopropanecarboxylate]: the results for the pIC50 (on human recombinant renin; in assay [1]) were 10.19 and 7.96, respectively.
Take `COCCCc1cc(CN(C(=O)[C@H]2CNCC[C@@H]2c2ccc(OCCOc3c(Cl)cc(C)cc3Cl)cc2)C2CC2)cc(OCC2(Cc3nn[nH]n3)CC2)c1` [Example 14, (3R,4S)—N-Cyclopropyl-4-{4-[2-(2,6-dichloro-4-methylphenoxy)ethoxy]phenyl}-N-(3-(3-methoxypropyl)-5-{[1-(2H-tetrazol-5-ylmethyl)cyclopropyl]methoxy}benzyl)-piperidine-3-carboxamide]: the values for the pIC50 (at human recombinant renin; in assay [1]) were 10.52 and 8.64, respectively.
